Reference: US6747035B2, “1-alkyl or 1-cycloalkyltriazolo[4,3-a]quinazolin-5-ones as phosphodiesterase inhibitors” (Warner-Lambert LLC, priority 2001, dated 2004)

Tested on: not given
Test: not given
Conditions: dose of 20 mg as a single intake; cited from earlier work

SMILES	undesirable effects
COc1ccc([C@]2(C#N)CC[C@@H](C(=O)O)CC2)cc1OC1CCCC1 [Ariflo]	significant undesirable effects, such as nausea and vomiting

Tested on: PDE4
Test: PDE4 enzyme inhibition (IC50), enzyme from cytosolic preparation of U937 cell line
Type: biochemical, human
Conditions: inhibitory activity on PDE4; substrate cAMP 0.25 μM; reaction stopped after 10 minutes
Experimental: The capacity of the compounds of formula (I) of the invention to inhibit cyclic nucleotide phosphodiesterases is evaluated by measuring their IC50 (concentration required to inhibit 50% of the enzymatic activity).
The type 4 phosphodiesterases are obtained from a cytosolic preparation extracted from a cell line U937 of human origin according to the method adapted from T. J. Torphy et al., J. Pharm. Exp. Ther. (1992), 263: 1195-1205.
The measurement of the enzymatic activity of the various types of PDE, and in particular the PDE4, is carried out according to a method adapted from W. J. Thompson et al., Advances in Cyclic Nucleotide Research, (1979) Vol. 10: 69-92, ed. G. Brooker et al. Raven Press, NY.
The substrate used is cGMP for PDE1 and PDE5 and cAMP for PDE 3 and PDE 4. The substrate concentration was 0.2 μM for PDE 1, PDE 3 and PDE 5, 0.25 μM for PDE 4.
The enzymatic reaction was stopped after 1 hour for PDE 1, PDE 3 and PDE 5 and 10 minutes for PDE 4.
The following table illustrates the inhibitory activity on PDE4 of some of the compounds of formula (I): […]

SMILES	IC50 [nM]
CNc1ccc2c(c1)c(=O)n(Cc1ccc(C#N)cc1)c1nnc(C3CCCC3)n21 [Example 9, 4-(4-cyanobenzyl)-1-cyclopentyl-7-(N-methylamino)-4H-[1,2,4]triazolo[4,3-a]quinazolin-5-one]	2
CC(=O)N(C)c1ccc2c(c1)c(=O)n(Cc1ccccc1)c1nnc(C3CCCC3)n21 [Example 5, 4-benzyl-1-cyclopentyl-7-(N-methylacetamido)-4H-[1,2,4]triazolo[4,3-a]quinazolin-5-one]	2700
Cc1nnc2n(Cc3ccccc3)c(=O)c3cc(Br)ccc3n12 [Example 11, 4-benzyl-7-bromo-1-methyl-4H-[1,2,4]triazolo[4,3-a]quinazolin-5-one]	1000
CC(=O)Nc1ccc2c(c1)c(=O)n(Cc1ccccc1)c1nnc(C3CCCC3)n21 [Example 2, 7-acetamido-4-benzyl-1-cyclopentyl-4H-[1,2,4]triazolo[4,3-a]quinazolin-5-one]	8500
O=c1c2cc(Br)ccc2n2c(C3CCCC3)nnc2n1Cc1ccccc1 [Example 10, 4-benzyl-7-bromo-1-cyclopentyl-4H-[1,2,4]triazolo[4,3-a]quinazolin-5-one]	61
CC(=O)Nc1ccc2c(c1)c(=O)n(Cc1ccccc1)c1nnc(C)n21 [Example 4, 7-acetamido-4-benzyl-1-methyl-4H-[1,2,4]triazolo[4,3-a]quinazolin-5-one]	31000
CNc1ccc2c(c1)c(=O)n(Cc1ccccc1)c1nnc(C3CCCC3)n21 [Example 7, 4-benzyl-1-cyclopentyl-7-methylamino-4H-[1,2,4]triazolo[4,3-a]quinazolin-5-one]	75
CC(=O)N(C)c1ccc2c(c1)c(=O)n(Cc1ccc(C#N)cc1)c1nnc(C3CCCC3)n21 [Example 8, 4-(4-cyanobenzyl)-1-cyclopentyl-7-(N-methylacetamido)-4H-[1,2,4]triazolo[4,3-a]quinazolin-5-one]	1300
